Assay results published in ChEMBL document CHEMBL5247622, “Structural optimization of Imidazo[1, 2-a]pyridine derivatives for the treatment of gastric cancer via STAT3 signaling pathway” (Eur J Med Chem, 2022).
The source made the active and inactive calls. The calls are words filed in the database; no cut-off is given here.

Key:
AGS [1] = test: Antiproliferative activity against human AGS cells assessed as reduction in cell viability incubated for 72 hrs by CCK-8 assay; format: functional, cell-based
[2] = target: Signal transducer and activator of transcription 3 (Homo sapiens) (UniProt P40763); test: Inhibition of STAT3 in human MGC-803 cells assessed as inhibition of STAT3 phosphorylation level at Tyr705 at 0.3 to 3 uM by western blot assay; format: cell-based; details: dose 0.3-3 µM
Sequence of Signal transducer and activator of transcription 3 (Homo sapiens) (P40763 whole entry): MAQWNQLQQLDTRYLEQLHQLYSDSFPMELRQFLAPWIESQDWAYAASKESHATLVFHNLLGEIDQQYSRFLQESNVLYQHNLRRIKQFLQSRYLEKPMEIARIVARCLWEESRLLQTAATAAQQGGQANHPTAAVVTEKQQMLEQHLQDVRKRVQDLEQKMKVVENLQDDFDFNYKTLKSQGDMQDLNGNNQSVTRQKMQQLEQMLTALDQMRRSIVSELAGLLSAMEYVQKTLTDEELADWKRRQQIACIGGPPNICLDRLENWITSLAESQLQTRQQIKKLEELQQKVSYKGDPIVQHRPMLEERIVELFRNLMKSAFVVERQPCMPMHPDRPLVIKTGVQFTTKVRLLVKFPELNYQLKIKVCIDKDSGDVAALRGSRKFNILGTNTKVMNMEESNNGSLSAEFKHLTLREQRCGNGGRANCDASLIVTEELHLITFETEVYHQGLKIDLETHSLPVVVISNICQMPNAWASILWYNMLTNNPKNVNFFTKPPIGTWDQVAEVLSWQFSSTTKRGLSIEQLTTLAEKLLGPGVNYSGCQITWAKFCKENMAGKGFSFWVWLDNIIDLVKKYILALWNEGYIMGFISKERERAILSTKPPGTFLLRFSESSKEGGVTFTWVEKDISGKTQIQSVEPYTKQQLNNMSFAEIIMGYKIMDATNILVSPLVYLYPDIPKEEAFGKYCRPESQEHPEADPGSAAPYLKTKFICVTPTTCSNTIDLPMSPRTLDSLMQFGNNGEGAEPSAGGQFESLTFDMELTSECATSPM

MGC-803 [3] = test: Inhibition of cell migration in human MGC-803 cells at 0.03 to 0.3 uM incubated for 48 hrs by wound healing assay based microscopic analysis; format: functional; details: dose 0.03-0.3 µM
AGS [4] = test: Induction of apoptosis in human AGS cells assessed as late apoptotic cells at 0.3 uM incubated for 48 hrs by Annexin V-FITC/PI staining based flow cytometry method (reference value: 2.46 %); format: functional
MGC-803 [5] = test: Inhibition of cell invasion in human MGC-803 cells at 0.03 to 0.3 uM incubated for 12 hrs by crystal violet staining based transwell assay; format: functional; details: dose 0.03-0.3 µM
MGC-803 [6] = test: Inhibition of colony formation in human MGC-803 cells at 0.3 to 3 uM incubated for 10 to 15 days by crystal violet staining based assay; format: functional, cell-based; details: dose 0.3-3 µM, time 10-15 day
MGC-803 [7] = test: Antitumor activity against human MGC-803 cells xenografted in BALB/c mouse assessed as tumor growth inhibition at 15 mg/kg,ip administrated for 21 consecutive days relative to control; format: functional; details: read-out: TGI
MGC-803 [8] = test: Antitumor activity against human MGC-803 cells xenografted in BALB/c mouse assessed as reduction of Ki67 expression level in tumor at 15 mg/kg,ip administrated for 21 consecutive days by immunohistochemistry analysis; format: functional, organism-based
[9] = Toxicity in BALB/c mouse xenografted with human MGC-803 cells assessed as morphological change in spleen at 15 mg/kg,ip administrated for 21 consecutive days by hematoxylin and eosin staining method; format: organism-based; details: in vivo
MGC-803 [10] = test: Antitumor activity against human MGC-803 cells xenografted in BALB/c mouse assessed as tumor growth inhibition at 5 mg/kg,ip administrated for 21 consecutive days relative to control; format: functional; details: read-out: TGI
[11] = Toxicity in BALB/c mouse xenografted with human MGC-803 cells assessed as morphological change in heart at 15 mg/kg,ip administrated for 21 consecutive days by hematoxylin and eosin staining method; format: organism-based; details: in vivo
[12] = Toxicity in BALB/c mouse xenografted with human MGC-803 cells assessed as body weight loss at 15 mg/kg,ip administrated for 21 consecutive days; format: organism-based; details: in vivo
[13] = target: T1, Signal transducer and activator of transcription 1-alpha/beta (Homo sapiens) (UniProt P42224); test: Inhibition of STAT1 in human AGS cells assessed as inhibition of STAT1 phosphorylation level at Tyr701 at 0.3 to 3 uM by western blot assay; format: cell-based; details: dose 0.3-3 µM
T1 sequence (whole entry): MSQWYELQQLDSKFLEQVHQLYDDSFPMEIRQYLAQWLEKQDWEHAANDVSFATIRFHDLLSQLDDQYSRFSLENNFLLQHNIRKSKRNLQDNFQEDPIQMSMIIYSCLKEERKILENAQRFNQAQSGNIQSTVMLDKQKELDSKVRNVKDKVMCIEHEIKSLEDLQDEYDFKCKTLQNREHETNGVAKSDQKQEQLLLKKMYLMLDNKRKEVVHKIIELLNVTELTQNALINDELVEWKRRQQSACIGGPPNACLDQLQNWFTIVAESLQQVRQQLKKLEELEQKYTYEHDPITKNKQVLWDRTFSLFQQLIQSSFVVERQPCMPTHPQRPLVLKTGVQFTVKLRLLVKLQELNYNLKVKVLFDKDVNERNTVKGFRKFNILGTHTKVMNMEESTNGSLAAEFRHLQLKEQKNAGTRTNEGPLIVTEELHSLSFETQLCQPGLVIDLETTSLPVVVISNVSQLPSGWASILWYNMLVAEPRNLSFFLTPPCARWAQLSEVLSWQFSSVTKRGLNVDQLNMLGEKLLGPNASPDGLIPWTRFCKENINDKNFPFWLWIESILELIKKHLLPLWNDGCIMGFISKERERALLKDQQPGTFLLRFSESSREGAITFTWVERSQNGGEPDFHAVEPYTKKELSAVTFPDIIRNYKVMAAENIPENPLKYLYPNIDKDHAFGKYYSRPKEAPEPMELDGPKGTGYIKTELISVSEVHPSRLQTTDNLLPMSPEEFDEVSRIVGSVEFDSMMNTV

[14] = target: Signal transducer and activator of transcription 3 (Homo sapiens) (UniProt P40763); test: In vivo inhibition of STAT3 in BALB/c mouse xenografted with human MGC-803 cells assessed as reduction of STAT3 phosphorylation level at Tyr705 in tumor at 15 mg/kg,ip administrated for 21 consecutive days by immunohistochemistry analysis; format: functional, organism-based
[15] = target: Signal transducer and activator of transcription 3 (Homo sapiens) (UniProt P40763); test: Inhibition of STAT3 (unknown origin) transcriptional signaling transfected in HEK293T cells at 3 uM incubated for 24 hrs by firefly luciferase gene reporter assay; format: cell-based
MGC-803 [16] = test: Antitumor activity against human MGC-803 cells xenografted in BALB/c mouse assessed as inhibition of tumor weight at 5 to 15 mg/kg,ip administrated for 21 consecutive days; format: functional, organism-based; details: dose 5-15 mg/kg
[17] = Toxicity in BALB/c mouse xenografted with human MGC-803 cells assessed as body weight loss at 5 mg/kg,ip administrated for 21 consecutive days; format: organism-based; details: in vivo
AGS [18] = test: Induction of apoptosis in human AGS cells assessed as early apoptotic cells at 3 uM incubated for 48 hrs by Annexin V-FITC/PI staining based flow cytometry method (reference value: 2.38 %); format: functional
[19] = Metabolic stability in human liver microsomes assessed as half life; format: ADME, Microsome
[20] = Toxicity in BALB/c mouse xenografted with human MGC-803 cells assessed as morphological change in heart at 5 mg/kg,ip administrated for 21 consecutive days by hematoxylin and eosin staining method; format: organism-based; details: in vivo
[21] = target: Signal transducer and activator of transcription 3 (Homo sapiens) (UniProt P40763); test: Thermal stabilization of STAT3 in human AGS cells at 1 uM at 37 to 54 degreeC incubated for 1 hr by cellular thermal shift assay; format: cell-based
[22] = target: Signal transducer and activator of transcription 3 (Homo sapiens) (UniProt P40763); test: Inhibition of STAT3 in human AGS cells assessed as inhibition of total STAT3 protein level at 0.3 to 3 uM by western blot assay; format: cell-based; details: dose 0.3-3 µM
[23] = target: Signal transducer and activator of transcription 3 (Homo sapiens) (UniProt P40763); test: In vivo inhibition of STAT3 in BALB/c mouse xenografted with human MGC-803 cells assessed as reduction of STAT3 phosphorylation level at Tyr705 in tumor at 5 mg/kg,ip administrated for 21 consecutive days by immunohistochemistry analysis; format: functional, organism-based
AGS [24] = test: Induction of apoptosis in human AGS cells assessed as viable cells at 3 uM incubated for 48 hrs by Annexin V-FITC/PI staining based flow cytometry method (reference value: 94.8 %); format: functional; details: read-out: Activity
[25] = Toxicity in BALB/c mouse xenografted with human MGC-803 cells assessed as morphological change in spleen at 5 mg/kg,ip administrated for 21 consecutive days by hematoxylin and eosin staining method; format: organism-based; details: in vivo
[26] = Toxicity in BALB/c mouse xenografted with human MGC-803 cells assessed as morphological change in kidney at 15 mg/kg,ip administrated for 21 consecutive days by hematoxylin and eosin staining method; format: organism-based; details: in vivo

Cc1cc(NC(=O)c2ccc([N+](=O)[O-])o2)ccc1-c1cnc2ccccn12
IC50 (AGS [1]): 390 nM
inhibition [2]: Dose-Dependent Effect
inhibition (MGC-803 [3]): Dose-Dependent Effect
Activity (AGS [4]): 3.15%
inhibition (MGC-803 [5]): Active
inhibition (MGC-803 [6]): Dose-Dependent Effect
inhibition in vivo at 15 mg/kg (MGC-803 [7]): 73.4%
inhibition (MGC-803 [8]): Active
Activity [9]: Non-Toxic
inhibition in vivo at 5 mg/kg (MGC-803 [10]): 47.1%
Activity [11]: Non-Toxic
Activity [12]: Non-Toxic
inhibition [13]: inactive
inhibition [14]: Active
inhibition [15]: Active
inhibition (MGC-803 [16]): Dose-Dependent Effect
Activity [17]: Non-Toxic
Activity (AGS [18]): 12.1%
half-life [19]: 41.2 min
Activity [20]: Non-Toxic
Activity [21]: Active
inhibition [22]: inactive
inhibition [23]: Active
viability at 3 µM (AGS [24]): 81.3%
Activity [25]: Non-Toxic
Activity [26]: Non-Toxic
